{
  "source": "patent US9629830B2",
  "about": "“EphA4 inhibitors as neuroprotective agents” (The Hong Kong University of Science and Technology, priority 2013, dated 2017)",
  "key": {"[1]": {"target": "T1, extracellular domain of EphB2 (Homo sapiens, UniProt P29323)", "T1 construct": "purchased R&D Systems", "T1 sequence (P29323 19-543 limits assumed)": "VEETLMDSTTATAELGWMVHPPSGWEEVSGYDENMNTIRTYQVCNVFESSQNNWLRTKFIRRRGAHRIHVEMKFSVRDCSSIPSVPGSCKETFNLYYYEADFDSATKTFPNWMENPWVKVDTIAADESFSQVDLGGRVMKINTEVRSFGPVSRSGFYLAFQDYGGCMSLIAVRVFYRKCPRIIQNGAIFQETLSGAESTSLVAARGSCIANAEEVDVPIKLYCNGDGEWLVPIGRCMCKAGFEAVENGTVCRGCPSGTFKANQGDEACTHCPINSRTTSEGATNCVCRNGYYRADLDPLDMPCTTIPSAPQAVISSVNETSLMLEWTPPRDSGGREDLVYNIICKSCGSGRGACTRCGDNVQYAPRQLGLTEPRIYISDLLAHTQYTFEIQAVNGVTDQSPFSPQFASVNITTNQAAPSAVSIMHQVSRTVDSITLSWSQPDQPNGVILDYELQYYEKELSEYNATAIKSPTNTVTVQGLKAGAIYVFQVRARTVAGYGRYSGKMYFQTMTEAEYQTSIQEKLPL", "test": "In vitro pull-down of recombinant EphB2-Fc with biotinylated Rhy on streptavidin beads", "assay_type": "binding", "details": "western blot", "description": "For the pull-down analysis, Bio-Rhy was bound to streptavidin magnetic beads for 1 h, the beads was then incubated with recombinant EphA4-Fc or EphB2-Fc in the presence of 0.5% BSA for 1 h. After incubation, the beads were washed 4 times with DPBS and the presence of Eph in the complex was determined by western blot analysis."}, "EphA4": {"target": "T2, EphA4 (Rattus norvegicus, UniProt D3ZZK3)", "T2 construct": "endogenous in cells; host or cells: primary rat cortical neurons (A5), primary rat hippocampal neurons (A7)", "T2 sequence (D3ZZK3 20-986)": "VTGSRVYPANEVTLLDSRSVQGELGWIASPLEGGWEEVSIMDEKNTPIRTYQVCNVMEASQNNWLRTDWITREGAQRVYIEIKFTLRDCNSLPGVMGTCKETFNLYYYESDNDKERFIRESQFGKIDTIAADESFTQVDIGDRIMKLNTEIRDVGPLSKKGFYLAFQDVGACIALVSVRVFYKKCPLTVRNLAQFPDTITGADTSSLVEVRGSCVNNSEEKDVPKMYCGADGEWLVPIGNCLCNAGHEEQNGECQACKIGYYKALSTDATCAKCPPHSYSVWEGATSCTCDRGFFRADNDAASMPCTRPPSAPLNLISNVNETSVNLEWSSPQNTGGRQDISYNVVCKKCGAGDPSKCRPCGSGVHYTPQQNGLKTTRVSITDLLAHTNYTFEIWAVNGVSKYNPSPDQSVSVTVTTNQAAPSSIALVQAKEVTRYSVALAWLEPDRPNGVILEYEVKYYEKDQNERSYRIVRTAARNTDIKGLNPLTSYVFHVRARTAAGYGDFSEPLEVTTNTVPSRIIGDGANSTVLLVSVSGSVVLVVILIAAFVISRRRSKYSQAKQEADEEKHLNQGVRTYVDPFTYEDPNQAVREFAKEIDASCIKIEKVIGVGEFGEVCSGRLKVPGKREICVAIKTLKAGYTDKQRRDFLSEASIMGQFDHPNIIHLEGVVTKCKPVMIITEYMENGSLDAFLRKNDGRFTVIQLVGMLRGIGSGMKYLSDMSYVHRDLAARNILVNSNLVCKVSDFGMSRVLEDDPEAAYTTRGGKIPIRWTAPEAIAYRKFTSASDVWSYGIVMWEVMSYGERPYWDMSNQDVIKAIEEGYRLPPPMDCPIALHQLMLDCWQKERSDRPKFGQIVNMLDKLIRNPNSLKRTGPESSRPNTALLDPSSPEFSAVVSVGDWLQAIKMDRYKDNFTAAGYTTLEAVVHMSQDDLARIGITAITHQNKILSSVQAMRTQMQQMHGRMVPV", "test": "Ephrin-A1-induced EphA4 cluster assay in cultured hippocampal neurons", "assay_type": "cell-based", "details": "cultured hippocampal neurons 3 DIV, different concentrations", "description": "For EphA4 clustering, neurons were stained with anti-EphA4 and anti-Tau-1 antibodies. For the growth cone collapse assay, neurons were stained with Alexa Fluor 555-conjugated phalloidin (Molecular Probes) for filamentous actin and anti-Tau-1 antibody for axons. Collapsed growth cones were scored in a double-blinded manner. The experiments were repeated at least 3 times, and >50 neurons were analyzed for each experiment. Data are presented as mean±SEM.\nRat hippocampal neurons were seeded on 48-well plates coated with poly-D-lysine (50 μg/mL) at 6000 cells per well. Neurons were incubated with Neurobasal medium (Invitrogen) supplemented with 2% B27 (Invitrogen). […] Neurons were then immunostained with anti-EphA4 and anti-Tau-1 antibodies. The cellular imaging and quantification of EphA4 clusters was performed using IN Cell Analyzer 6000 high content assay system (GE Healthcare). EphA4 clusters were quantified by calculating the proportion of total area of EphA4 clusters on axons against Tau positive area. Statistical analysis was performed with one-way ANOVA followed by Newman-Keuls Multiple Comparison Test (Prism 5 GraphPad Software)."}, "NMDA receptor": {"test_system": "NMDA receptor", "details": "subsequent study; cited from earlier work"}, "Tg2576 mutant mice": {"test_system": "Tg2576 mutant mice", "test": "HFS-induced hippocampal LTP in WT and Tg2576 mice after oral treatment", "assay_type": "in vivo, mouse", "description": "APP/PS1 double-transgenic mice were obtained from Jackson Laboratory (B6C3-Tg[APPswe, PSEN1dE9]85Dbo/J)^66. These mice were generated by incorporating a human/murine APP construct bearing the Swedish double mutation and the exon-9-deleted PSEN1 mutation (APPswe+PSEN1/dE9). APP transgenic mice (Tg2576) expressing a double mutant of human AβPP (Lys^670→Asn^670, Met^671→Leu^671) were also used^31. Both sexes were used for experiments, and all mice used in this study were produced by the Animal Care Facility of The Hong Kong University of Science and Technology. The genotype was confirmed by polymerase chain reaction analysis of tail biopsies. Four to five mice of the same sex were housed in a cage with food and water ad libitum with a 12-hour light/dark cycle.\nTo investigate the effect of blocking EphA4 signaling by KYL peptide in AD mice, 4-5-month-old AD transgenic mice were implanted with Alzet mini-osmotic pumps, model 1004, pumping its contents at 0.11 μL/h for 28 days. Pumps were loaded with either 0.23 μg/μL KYL peptide (17 μg) or vehicle solvent in artificial cerebrospinal fluid (CSF). The mini-osmotic pumps were adjusted intracerebroventricularly in the right hemisphere. […]\nFor LTP recordings, mouse brains were immediately dissected after sacrifice and soaked in ice-cold 95% O2/5% CO2 (aCSF)^58. […] For treatment with EphA4 inhibitors, the slices were pretreated with peptides or chemicals for 1 h before application of Aβ. fEPSPs were recorded using a MED64 multichannel recording system, and the data were collected from the dendritic layer of area CA1 at a sampling rate of 10 kHz. For each slice, the baseline stimulus intensity was set at the level that elicited ˜50% of the maximum fEPSP response determined according to the input-output curve. […] The magnitude of LTP was quantified as a percentage change in the fEPSP slope (10%-90%) taken during the 60-min interval after LTP induction."}},
  "note": "Entries after “also recorded” stand apart in the source; their conditions may differ.",
  "data": [
    {"smiles": "CC[C@H]1CN2CC[C@]3(C(=O)Nc4ccccc43)[C@@H]2C[C@@H]1/C(=C\\OC)C(=O)OC", "note": "[Rhy, methyl (7β,16E,20α)-16-(methoxymethylene)-2-oxocorynoxan-17-oate]", "values": [
      {"measurement": "binding to the extracellular domain of EphB2 (pull-down, words)", "setting": "[1]", "result": "not that of EphB2"},
      {"measurement": "ephrin-A1-induced EphA4 clustering", "setting": "EphA4", "result": "reduced the ephrin-A1-induced EphA4 clustering; also recorded: abolished ephrin-A1-induced EphA4 clustering"},
      {"measurement": "binding to NMDA receptor", "setting": "NMDA receptor", "result": "neither binds to NMDA receptor"},
      {"measurement": "mean fEPSP slope, last 10 min after LTP induction", "setting": "Tg2576 mutant mice; Tg2576 mice, Rhy oral 20 mg·kg−1·day−1 for 3 weeks, Tg Con 119.0±3.7%", "result": "161.9±2.9", "unit": "%"},
      {"measurement": "mean fEPSP slope, last 10 min after LTP induction", "setting": "Tg2576 mutant mice; Tg2576 mice, Rhy oral 50 mg·kg−1·day−1 for 3 weeks, Tg Con 119.0±3.7%", "result": "159.7±17.9", "unit": "%"},
      {"measurement": "mean fEPSP slope, last 10 min after LTP induction", "setting": "Tg2576 mutant mice; WT mice, Rhy oral 20 mg·kg−1·day−1 for 3 weeks, WT Con 170.1±9.7%", "result": "167.3±5.2", "unit": "%"}
    ]}
  ]
}
